Like-named read-outs stand apart in the source and are kept apart here.
Experiments:
CCRF-CEM = assay: NCI five-dose assay; type: cell-based; details: Homo sapiens, Leukemia CCRF-CEM
MOLT-4 = assay: NCI five-dose assay; type: cell-based; details: Leukemia MOLT-4
HOP-62 = assay: NCI five-dose assay; type: cell-based, human; details: Non-Small-Cell Lung Cancer HOP-62
NCI-H522 = assay: NCI five-dose assay; type: cell-based; details: Non-Small-Cell Lung Cancer NCI-H522
COLO 205 = assay: NCI five-dose assay; type: cell-based, human; details: Colon Cancer COLO 205
HCT-15 = assay: NCI five-dose assay; type: cell-based; details: Colon Cancer HCT-15
HT29 = assay: NCI five-dose assay; type: cell-based; details: Colon Cancer HT29
SF-295 = assay: NCI five-dose assay; type: cell-based; details: CNS Cancer SF-295
SF-539 = assay: NCI five-dose assay; type: cell-based; details: CNS Cancer SF-539
SNB-19 = assay: NCI five-dose assay; type: cell-based; details: CNS Cancer SNB-19
LOX IMVI = assay: NCI five-dose assay; type: cell-based; details: Homo sapiens, Melanoma LOX IMVI
MALME-3M = assay: NCI five-dose assay; type: cell-based; details: Homo sapiens, Melanoma MALME-3M
MDA-MB-435 = assay: NCI five-dose assay; type: cell-based; details: Homo sapiens, Melanoma MDA-MB-435
SK-MEL-2 = assay: NCI five-dose assay; type: cell-based; details: Melanoma SK-MEL-2
SK-MEL-5 = assay: NCI five-dose assay; type: cell-based; details: Melanoma SK-MEL-5
UACC-257 = assay: NCI five-dose assay; type: cell-based; details: Melanoma UACC-257
UACC-62 = assay: NCI five-dose assay; type: cell-based; details: Melanoma UACC-62
IGROV1 = assay: NCI five-dose assay; type: cell-based; details: Ovarian Cancer IGROV1
OVCAR-5 = assay: NCI five-dose assay; type: cell-based; details: Ovarian Cancer OVCAR-5
OVCAR-8 = assay: NCI five-dose assay; type: cell-based; details: Ovarian Cancer OVCAR-8
786-0 = assay: NCI five-dose assay; type: cell-based; details: Renal Cancer 786-0
A498 = assay: NCI five-dose assay; type: cell-based; details: Renal Cancer A498
RXF393 = assay: NCI five-dose assay; type: cell-based; details: Renal Cancer RXF393
SN12C = assay: NCI five-dose assay; type: cell-based; details: Renal Cancer SN12C
DU-145 = assay: NCI five-dose assay; type: cell-based; details: Homo sapiens, Prostate Cancer DU-145
MDA-MB-231/ATCC = assay: NCI five-dose assay; type: cell-based; details: Breast Cancer MDA-MB-231/ATCC
[1] = test system: Non-Small-Cell Lung Cancer subpanel; assay: NCI five-dose assay, subpanel; type: cell-based, human
Protocol: (§1) The outcomes were used to form log concentration vs. percentage growth inhibition curves and three response parameters (GI50, total growth inhibition (TGI), and LC50) were calculated for each cell line (Table 2).
(§2) The criterion for selectivity of a compound depends upon the ratio obtained by dividing the full-panel MID (the average sensitivity of all cell lines toward the test agent) (μM) by the individual subpanel MIDs (μM).

[2] = test system: 60 human tumor cell lines; assay: NCI five-dose assay, full panel; type: cell-based; details: for GI50: Homo sapiens
Protocol: as §1, §2

OVCAR-3 = assay: NCI five-dose assay
[3] = read-out: GI50 Concentration/Cell Line
[4] = Homo sapiens, read-out: GI50 Concentration/Cell Line
[5] = Homo sapiens, read-out: LC50 (the source's name)
[6] = Non-Small-Cell Lung Cancer subpanel

Compound: COC(=O)C=C1SC(=NNC(=O)c2cc3ccc2CCc2ccc(cc2)CC3)N(c2ccccc2)C1=O [Compound 3a]
- LC50 (CCRF-CEM): > 100 µM
- GI50 (CCRF-CEM; [3]): 2.71 µM
- LC50 (concentration killing 50% of cells) (MOLT-4; Homo sapiens): > 100 µM
- GI50 (MOLT-4; [4]): 3.12 µM
- TGI Concentration/Cell Line (MOLT-4): >100 µM
- GI50 (HOP-62; [4]): 2.68 µM
- TGI Concentration/Cell Line (HOP-62): 6.97 µM
- LC50 (NCI-H522; Homo sapiens): > 100 µM
- GI50 (NCI-H522; [4]): 4.89 µM
- TGI Concentration/Cell Line (NCI-H522): >100 µM
- TGI Concentration/Cell Line (COLO 205): 4.61 µM
- GI50 (COLO 205; [4]): 2.13 µM
- TGI Concentration/Cell Line (HCT-15): 4.05 µM
- LC50 (HCT-15; Homo sapiens): 8.76 µM
- GI50 (HCT-15; [4]): 1.87 µM
- TGI Concentration/Cell Line (HT29): 4.07 µM
- LC50 (HT29; Homo sapiens, HT-29): 8.56 µM
- GI50 (HT29; Homo sapiens, HT-29, read-out: GI50 Concentration/Cell Line): 1.93 µM
- TGI Concentration/Cell Line (SF-295): 4.19 µM
- LC50 (SF-295; Homo sapiens): 8.5 µM
- GI50 (SF-295; [4]): 2.07 µM
- TGI Concentration/Cell Line (SF-539): 3.32 µM
- GI50 (SF-539; [4]): 1.79 µM
- CC50 (SF-539; [5]): 6.18 µM
- TGI Concentration/Cell Line (SNB-19): 4.25 µM
- LC50 (concentration killing 50% of cells) (SNB-19; Homo sapiens): 9.26 µM
- GI50 (SNB-19; [4]): 1.95 µM
- LC50 (concentration killing 50% of cells) (LOX IMVI): 6.75 µM
- GI50 (LOX IMVI; [3]): 1.69 µM
- GI50 (MALME-3M; [3]): 3.27 µM
- CC50 (MALME-3M; read-out: LC50 (the source's name)): > 100 µM
- LC50 (concentration causing 50% net cell kill) (MDA-MB-435): > 100 µM
- GI50 (MDA-MB-435; [3]): 5.44 µM
- LC50 (concentration causing 50% net cell kill) (SK-MEL-2; Homo sapiens): > 100 µM
- GI50 (SK-MEL-2; [4]): 2.65 µM
- TGI Concentration/Cell Line (SK-MEL-2): 7.76 µM
- LC50 (SK-MEL-5; Homo sapiens): > 100 µM
- GI50 (SK-MEL-5; [4]): 7.56 µM
- TGI Concentration/Cell Line (SK-MEL-5): >100 µM
- LC50 (UACC-257; Homo sapiens): > 100 µM
- GI50 (UACC-257; [4]): 5.14 µM
- TGI Concentration/Cell Line (UACC-257): >100 µM
- GI50 (UACC-62; [4]): 1.96 µM
- CC50 (UACC-62; [5]): 9.02 µM
- TGI Concentration/Cell Line (UACC-62): 4.21 µM
- LC50 (NCI lethal concentration, 50% net cell kill) (IGROV1; Homo sapiens, IGROV-1): 6.44 µM
- GI50 (IGROV1; Homo sapiens, IGROV-1, read-out: GI50 Concentration/Cell Line): 1.66 µM
- TGI Concentration/Cell Line (IGROV1): 3.27 µM
- LC50 (50% lethal concentration) (OVCAR-5; Homo sapiens): 7.68 µM
- GI50 (OVCAR-5; [4]): 1.92 µM
- TGI Concentration/Cell Line (OVCAR-5): 3.84 µM
- GI50 (OVCAR-8; [4]): 3.08 µM
- CC50 (OVCAR-8; [5]): > 100 µM
- TGI Concentration/Cell Line (OVCAR-8): >100 µM
- GI50 (786-0; [4]): 2 µM
- CC50 (786-0; [5]): 9.58 µM
- TGI Concentration/Cell Line (786-0): 4.38 µM
- CC50 (A498; [5]): > 100 µM
- TGI Concentration/Cell Line (A498): 8.36 µM
- LC50 (50% lethal concentration) (RXF393; Homo sapiens, RXF 393): > 100 µM
- TGI Concentration/Cell Line (RXF393): 3.86 µM
- LC50 (SN12C; Homo sapiens): > 100 µM
- GI50 (SN12C; [4]): 2.27 µM
- TGI Concentration/Cell Line (SN12C): 5.94 µM
- LC50 (DU-145): > 100 µM
- GI50 (DU-145; [3]): 5.11 µM
- TGI Concentration/Cell Line (MDA-MB-231/ATCC): 7.46 µM
- LC50 (MDA-MB-231/ATCC; Homo sapiens): > 100 µM
- GI50 (MDA-MB-231/ATCC; [4]): 2.63 µM
- GI50 ([1]; Homo sapiens, Non-Small-Cell Lung Cancer subpanel average, read-out: GI50 Subpanel MID^b): 2.74 µM
- GI50 Selectivity Ratio (MID^a: MID^b) [1, 6]: 0.87
- TGI Selectivity Ratio (MID^c: MID^d) [1, 6]: 1.31
- TGI Subpanel MID^d ([1]; Non-Small-Cell Lung Cancer subpanel average): 16.1 µM
- GI50 ([2]; full panel, read-out: MID^a (GI50, average sensitivity of all cell lines)): 2.38 µM
- GI50 ([2]; nine subpanels, read-out: GI50 range over tested cell lines): 1.52 to 7.56 µM
- MID^c (TGI, average sensitivity of all cell lines) ([2]; full panel): 21.1 µM
- GI50 (OVCAR-3; Homo sapiens, OVCAR-3, read-out: GI50 Concentration/Cell Line): 1.8 µM
- CC50 (OVCAR-3; Homo sapiens, OVCAR-3, read-out: LC50): 7.23 µM
- TGI Concentration/Cell Line (OVCAR-3; Ovarian Cancer OVCAR-3): 3.61 µM
